Test results published in patent publication US10577363B2, “Substituted piperidine compounds” (EPIZYME, INC., priority 2014, dated 2020).

What follows are compounds tested against SMYD3 (Homo sapiens (Human), UniProt Q9H7B4) (assay: SMYD3 biochemical assay (SPA, 3H-SAM methylation of MEKK2 protein substrate)). Settings: Table 1A; IC50 values are an average of n = 1 to n = 50; read-out: SMYD3 Biochem IC50.
Summary of the method: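 Tritium incorporation into GST-MEKK2 is counted by scintillation proximity after citric acid bead capture. Native human SMYD3 is preincubated with test compound for 30 min at room temperature at pH 8.0 (Tris-Cl, TCEP, BSG, Tween 20) before 3H-SAM and substrate are added; cold SAM at 100 uM final stops turnover.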

IC50 [µM]	Compound
0.204	C[C@H]1C[C@@H](NC(=O)c2cc(C3CC3)on2)CCN1S(=O)(=O)c1cccc(C(F)(F)F)n1 [compound 519, 5-cyclopropyl-N-((2S,4S)-2-methyl-1-((6-(trifluoromethyl)pyridin-2-yl)sulfonyl)piperidin-4-yl)isoxazole-3-carboxamide]
3.72	CCN(CC)S(=O)(=O)N1CC[C@H](NC(=O)c2cc(C3CC3)on2)C[C@@H]1C [compound 518, 5-cyclopropyl-N-((2S,4S)-1-(N,N-diethylsulfamoyl)-2-methylpiperidin-4-yl)isoxazole-3-carboxamide]
> 10	CC(C)CN(C)c1cc(S(=O)(=O)N2CC[C@H](NC(=O)c3cc(C4CC4)on3)C[C@@H]2C)ccn1 [compound 510, 5-cyclopropyl-N-((2S,4S)-1-((2-(isobutyl(methyl)amino)pyridin-4-yl)sulfonyl)-2-methylpiperidin-4-yl)isoxazole-3-carboxamide]

Same assay, conditions: average of n = 1 to n = 50; read-out: SMYD3 Biochem IC50

IC50 [µM]	Compound
0.498	Nc1cccc(S(=O)(=O)N2[C@@H]3CCC[C@H]2C[C@H](NC(=O)c2cc(C4CC4)on2)C3)n1 [compound 740, N-((1R,3s,5S)-9-((6-aminopyridin-2-yl)sulfonyl)-9-azabicyclo[3.3.1]nonan-3-yl)-5-cyclopropylisoxazole-3-carboxamide]

Same assay, conditions: read-out: SMYD3 Biochem IC50 (μM)*

Compound	IC50 [µM]
C[C@H]1CN(C(=O)[C@H](N)Cc2ccc(O)cc2)CCC1NC(=O)c1cc(C2CC2)on1 (stereo partly drawn) [compound 47, N-((3S)-1-(D-tyrosyl)-3-methylpiperidin-4-yl)-5-cyclopropylisoxazole-3-carboxamide]	14.9
O=C(N[C@@H]1C[C@H]2CC[C@@H](C1)N2C(=O)CC1CCNCC1)c1cc(C2CC2)on1 [compound 126, 5-cyclopropyl-N-((1R,3s,5S)-8-(2-(piperidin-4-yl)acetyl)-8-azabicyclo[3.2.1]octan-3-yl)isoxazole-3-carboxamide]	9.86
CC(C)OCCS(=O)(=O)N1CC[C@@H](NC(=O)c2cc(C3CC3)on2)C[C@H]1C [compound 296, 5-cyclopropyl-N-((2R,4R)-1-((2-isopropoxyethyl)sulfonyl)-2-methylpiperidin-4-yl)isoxazole-3-carboxamide]	5.97
COC(=O)CCS(=O)(=O)N1CC[C@H](NC(=O)c2cc(C3CC3)on2)C[C@H]1C [compound 282, methyl 3-(((2R,4S)-4-(5-cyclopropylisoxazole-3-carboxamido)-2-methylpiperidin-1-yl)sulfonyl)propanoate]	> 10
CC1CN(C(=O)CCN)CCC1NC(=O)c1cc(C2CC2)on1 (stereo not drawn) [compound 80, N-(1-(3-aminopropanoyl)-3-methylpiperidin-4-yl)-5-cyclopropylisoxazole-3-carboxamide]	6.81
N[C@H]1CC[C@H](C(=O)N2CC[C@@H](NC(=O)c3cc(C4CC4)on3)[C@H](CO)C2)CC1 [compound 382, N-((3R,4R)-1-((1r,4R)-4-aminocyclohexane-1-carbonyl)-3-(hydroxymethyl)piperidin-4-yl)-5-cyclopropylisoxazole-3-carboxamide]	2.54
CNc1ccc(S(=O)(=O)N2CC[C@H](NC(=O)c3cc(C4CC4)on3)C[C@H]2C)cn1 [compound 447, 5-cyclopropyl-N-((2R,4S)-2-methyl-1-((6-(methylamino)pyridin-3-yl)sulfonyl)piperidin-4-yl)isoxazole-3-carboxamide]	> 10
CCC1(C(=O)N2CCC(NC(=O)c3cc(C4CC4)on3)C[C@@H]2C)CCNCC1 (stereo partly drawn) [compound 169, 5-cyclopropyl-N-((2S)-1-(4-ethylpiperidine-4-carbonyl)-2-methylpiperidin-4-yl)isoxazole-3-carboxamide]	3.77
C[C@H]1CC(NC(=O)c2cc(C3CC3)on2)CCN1C(=O)[C@H]1C[C@@H](N)C1 (stereo partly drawn) [compound 71, N-((2S)-1-((1s,3R)-3-aminocyclobutane-1-carbonyl)-2-methylpiperidin-4-yl)-5-cyclopropylisoxazole-3-carboxamide]	2.54
CCS(=O)(=O)N1CCC(NC(=O)c2cc(C3CC3)on2)C[C@H]1C (stereo partly drawn) [compound 75, 5-cyclopropyl-N-((2R)-1-(ethylsulfonyl)-2-methylpiperidin-4-yl)isoxazole-3-carboxamide]	7.31
C[C@@H]1C[C@H](NC(=O)c2cc(C3CC3)on2)CCN1S(=O)(=O)CCC(F)(F)F [compound 258, 5-cyclopropyl-N-((2R,4R)-2-methyl-1-((3,3,3-trifluoropropyl)sulfonyl)piperidin-4-yl)isoxazole-3-carboxamide]	8.37

Continued, values first:

IC50 [µM]	Compound
2.52	C[C@@H]1CC(NC(=O)c2cc(C3CC3)on2)CCN1C(=O)C1CCCNC1 (stereo partly drawn) [compound 107, 5-cyclopropyl-N-((2R)-2-methyl-1-(piperidine-3-carbonyl)piperidin-4-yl)isoxazole-3-carboxamide]
2.38	CC[C@H]1CC(NC(=O)c2cc(C3CC3)on2)CCN1C(=O)[C@H]1CC[C@H](N)CC1 (stereo partly drawn) [compound 94, N-((2S)-1-((1r,4S)-4-aminocyclohexane-1-carbonyl)-2-ethylpiperidin-4-yl)-5-cyclopropylisoxazole-3-carboxamide]
2.23	CCOC(=O)C1CN(C(=O)CCCN)CCC1NC(=O)c1cc(C2CC2)on1 (stereo not drawn) [compound 160, ethyl 1-(4-aminobutanoyl)-4-(5-cyclopropylisoxazole-3-carboxamido)piperidine-3-carboxylate]
2.2	N[C@H]1CC[C@H](C(=O)N2CCC(NC(=O)c3cc(C4CC4)on3)CC23CCC3)CC1 (stereo partly drawn) [compound 100, N-(5-((1r,4r)-4-aminocyclohexane-1-carbonyl)-5-azaspiro[3.5]nonan-8-yl)-5-cyclopropylisoxazole-3-carboxamide]
1.78	CC1CN(C(=O)[C@H]2CC[C@H](N)CC2)CC(C)C1NC(=O)c1cc(C2CC2)on1 (stereo partly drawn) [compound 303, N-(1-((1r,4r)-4-aminocyclohexane-1-carbonyl)-3,5-dimethylpiperidin-4-yl)-5-cyclopropylisoxazole-3-carboxamide]
1.65	C[C@H]1C[C@H](NC(=O)c2cc(C3CC3)on2)CCN1S(=O)(=O)N1CCN(C)CC1 [compound 324, 5-cyclopropyl-N-((2S,4R)-2-methyl-1-((4-methylpiperazin-1-yl)sulfonyl)piperidin-4-yl)isoxazole-3-carboxamide]
1.42	C[C@H]1CC(NC(=O)c2cc(C3CC3)on2)CCN1C(=O)C1CC12CCNCC2 (stereo partly drawn) [compound 179, 5-cyclopropyl-N-((2S)-2-methyl-1-(6-azaspiro[2.5]octane-1-carbonyl)piperidin-4-yl)isoxazole-3-carboxamide]
1.28	C[C@H]1C[C@@H](NC(=O)c2cc(C3CC3)on2)CCN1C(=O)CCCCN [compound 228, N-((2S,4S)-1-(5-aminopentanoyl)-2-methylpiperidin-4-yl)-5-cyclopropylisoxazole-3-carboxamide]
1.21	NCCCC(=O)N1CCC(NC(=O)c2cc(C3CC3)on2)C(C(F)(F)F)C1 (stereo not drawn) [compound 356, N-(1-(4-aminobutanoyl)-3-(trifluoromethyl)piperidin-4-yl)-5-cyclopropylisoxazole-3-carboxamide]
1.04	C[C@H]1CC(NC(=O)c2cc(C3CC3)on2)CCN1C(=O)[C@@H](N)Cc1ccc(O)cc1 (stereo partly drawn) [compound 7, N-((2S)-1-(L-tyrosyl)-2-methylpiperidin-4-yl)-5-cyclopropylisoxazole-3-carboxamide]
0.989	CC[C@H]1CN(C(=O)CCCN)CC[C@H]1NC(=O)c1cc(C2CC2)on1 [compound 299, N-((3S,4R)-1-(4-aminobutanoyl)-3-ethylpiperidin-4-yl)-5-cyclopropylisoxazole-3-carboxamide]
0.848	CC1(NC(=O)c2cc(C3CC3)on2)CCN(C(=O)CC2CCNCC2)CC1 [compound 153, 5-cyclopropyl-N-(4-methyl-1-(2-(piperidin-4-yl)acetyl)piperidin-4-yl)isoxazole-3-carboxamide]
0.844	C[C@H]1CC(NC(=O)c2cc(C3CC3)on2)CCN1C(=O)CC1CC2CCC(C1)N2 (stereo partly drawn) [compound 128, N-((2S)-1-(2-(8-azabicyclo[3.2.1]octan-3-yl)acetyl)-2-methylpiperidin-4-yl)-5-cyclopropylisoxazole-3-carboxamide]
0.83	NCCCC(=O)N1CCC(NC(=O)c2cc(C3CC3)on2)C2(CC2)C1 (stereo not drawn) [compound 198, N-(5-(4-aminobutanoyl)-5-azaspiro[2.5]octan-8-yl)-5-cyclopropylisoxazole-3-carboxamide]
0.728	C[C@@H]1CC(NC(=O)c2cc(C3CC3)on2)CCN1C(=O)[C@H]1CCC[C@H](N)C1 (stereo partly drawn) [compound 174, N-((2R)-1-((1S,3S)-3-aminocyclohexane-1-carbonyl)-2-methylpiperidin-4-yl)-5-cyclopropylisoxazole-3-carboxamide]
0.677	C[C@@H]1CC(NC(=O)c2cc(C3CC3)on2)CCN1C(=O)C1(F)CCNCC1 (stereo partly drawn) [compound 170, 5-cyclopropyl-N-((2R)-1-(4-fluoropiperidine-4-carbonyl)-2-methylpiperidin-4-yl)isoxazole-3-carboxamide]
0.479	C[C@@H](N)CC(=O)NC[C@H](Cc1ccc(O)c(I)c1)C(=O)N1CCC(NC(=O)c2cc(C3CC3)on2)CC1 [compound 45, N-(1-((S)-3-((R)-3-aminobutanamido)-2-(4-hydroxy-3-iodobenzyl)propanoyl)piperidin-4-yl)-5-cyclopropylisoxazole-3-carboxamide]

Same assay, conditions: read-out: SMYD3 Biochem IC50*

IC50 [µM]	Compound
0.00692	C[C@H]1C[C@@H](NC(=O)c2cc(C3CC3)on2)CCN1S(=O)(=O)C[C@H]1CCCNC1 [compound 854, 5-cyclopropyl-N-((2S,4S)-2-methyl-1-((((S)-piperidin-3-yl)methyl)sulfonyl)piperidin-4-yl)isoxazole-3-carboxamide]
